Measured values from patent publication US20250312357A1, “PROCESS OF PHYTOCA[…] FORMULATION AND USE IN THE MANAGEMENT OF PAIN” (COUNCIL OF SCIENTIFIC & INDUSTRIAL RESEARCH, priority 2022, published 2025).

Key:
[1] = tested on: thermal nociceptive response; experiment: Tail flick assay for thermal nociceptive response; assay type: in vivo, female BALB/c mice; conditions: fractions 10 mg/kg p.o., diclofenac sodium 50 mg/kg i.p.
Method: b. In-vivo efficacy study in pain model using the tail flick Assay for assessment of thermal nociceptive response in female BALB/c mice
Tail Flick Test: Prior to starting the test, the intensity of the beam was adjusted to produce a latency of approximately 3-6 sec. The was performed three times for each animal, at 3- to 5-min intervals, and the average of the three times recorded as the average reaction time (seconds). The light beam was delivered about 15 mm from the tip of the tail for mice. To minimize the chance of tissue trauma from heat exposure, a cut-off time of 10 sec was established, at which time the animal was removed from the test (Curr. Protoc. Neurosci., 2007, 41, 8.9.1). Mice were treated with diclofenac sodium (50 mg/kg. i.p.), a standard analgesic drug, CS-016-C2-F2-F2-F2 (10 mg/kg. p.o), CS-016-C2-F2-F3-F2 (10 mg/kg, p.o). and CS-016-B2 (10 mg/kg, p.o) each group contained three animals (n=3).
Tail Flick Assay in Female BALB/c Mice. […] The data were analysed using graph-pad prism software (8.0.2). […]

[2] = tested on: paclitaxel (PT) induced neuropathic pain; experiment: Randall Selitto test for mechanical hyperalgesia in paclitaxel induced neuropathic (cancer) pain model; assay type: in vivo, male BALB/c mice; conditions: paclitaxel 2 mg/kg i.p. (pain induction), all groups; FIGS. 7a and 7b
Method: a. In-Vivo Efficacy Study in Cancer Pain Model Using the Randall Selitto Test for Assessment of Mechanical Hyperalgesia in Male BALB/c Mice
Animals: Male BALB/C mice of weight range 25-30 g were used for evaluation of CS-016-B1 in paclitaxel (PT) induced neuropathic pain. Animals were housed under a 12-hour light/dark cycle in a temperature (65-75° F.; ^˜18-23° C.) and humidity-controlled (40-60%) environment. They were supplied with free access to the food and water (ad libitum). Prior to initiation of study all the animals were acclimatized for one week under standard laboratory conditions, animals were drug naive with no prior procedures performed. All testing were performed from 1 to 4 p.m. […]
Development of neuropathic pain in mice: Neuropathic pain in BALB/C mice was induced by intraperitoneal (i.p.) administration of Paclitaxel (PT) at 2 mg/kg for consecutive 5 days (Sci. Rep., 2014, 4, 1). Before paclitaxel injection baseline values of pain threshold for all the animals were recorded. […]
Experimental protocol: The present study was comprised of five experimental groups. […] Pain threshold was assessed using Randall Selitto for assessment of mechanical hyperalgesia at different time points like 0, 5th, 10th, and 15th days post dosing. […]
Randall Selitto Test: The nociceptive withdrawal threshold was assessed by using the Randall-Selitto algesimeter (Analgesy-Meter, Ugo Basile). […]

SMILES: O=C(O)Cc1ccccc1Nc1c(Cl)cccc1Cl [diclofenac sodium]
- latency time at 4 h relative to baseline ([1]; 4 h after treatment): comparable to that of baseline data
- time till which the effect on latency time sustained [1]: 3 h

SMILES: CC(=O)O[C@H]1C(=O)[C@@]2(C)[C@H]([C@H](OC(=O)c3ccccc3)[C@]3(O)C[C@H](OC(=O)[C@H](O)[C@@H](NC(=O)c4ccccc4)c4ccccc4)C(C)=C1C3(C)C)[C@]1(OC(C)=O)CO[C@@H]1C[C@@H]2O [paclitaxel]
- mechanical threshold compared with the baseline data [2]: significant reduction in mechanical threshold
